Measurements: patent publication US20100113484A1, “TREATING AGENT OF UROPATHY” (ASKA PHARMACEUTICAL CO., LTD., priority 2006, published 2010)
Read-outs that look alike come from different tables or passages of the source.

Columns and labels:
[1] = system: partial urethra obstruction model in guinea pigs; assay: Dysuria pathological model: partial urethra obstruction model, cystometry; format: in vivo, Hartley female guinea pigs; details: guinea pig, i.v.
Experimental: Three-four weeks old Hartley female guinea pigs (Japan SLC, Inc.) were given celiotomy under anesthesia with pentobarbital (30 mg/kg i.p.) and in their urethra to the peripheral side by 1-2 mm from the bladder neck, each a polyethylene tube of 1.4 mm in width and 2.0 mm in inner diameter was placed. After closing the wound, the guinea pigs were bred for at least 3 weeks to produce partial urethra obstruction model in guinea pigs in which occurrence of intravesical pressure rise not accompanied by micturition (uninhibited contraction) and residual urine were observed.
The model was catheterized under anesthesia with urethane (1 g/kg i.p.) at the apex of urinary bladder and right jugular vein for cystometrography and intravenous administration, respectively. The other end of the bladder catheter was connected to a pressure transducer and infusion pump via a three way stop-cock, and physiological saline was continuously infused into the bladder through the infusion pump at a rate of 0.4 mL/min to induce micturition reflex. Immediately after the micturition reflex was induced, infusion of physiological saline into the bladder was stopped. The intravesical pressure at the time the micturition reflex was induced was measured with the pressure transducer, and the obtained cystometrogram was recorded with pen recorder. The urine voided was collected with disposable type weighing dish and its weight was measured. Further the physiological saline remained in the bladder was sucked with syringe via the bladder catheter and the residual urine volume was measured. The operations of suspending the infusion of physiological saline upon induction of micturition reflex, and about 1 minute thereafter resuming the infusion of physiological saline to induce micturition reflex were repeated plural times (generally 4 times) to stabilize the micturition reflex.
After stabilizing the micturition reflex, a compound solution (prepared by dissolving the compound or methanesulfonic acid salt thereof in DMSO and diluting it with physiological saline or distilled water) or physiological saline was administered into the vein at a volume of 10 mL/kg over 4 minutes, and simultaneously the above-described micturition reflex operations were repeated until 30 minutes passed after initiation of the administration, while measuring the intravesical pressure and the volumes of micturition and residual urine. Also the frequency of uninhibited contraction occurrence during the above-described operations was recorded.

[2] = target: T1, human recombinant PDE9 protein (Homo sapiens, UniProt O76083); assay: Measurement of PDE9-inhibiting activity ([3H]-cGMP hydrolysis); format: biochemical
T1 construct: made in house; host or cells: COS-1 cells, transient transfection with pcDNA 3.1 (+); supernatant of the homogenate, not purified
Experimental: Based on the base sequence of hsPDE9A1 registered with GenBank database (accession No.: AF048837), hsPDE9A1 fragment was amplified by polymerase chain reaction under the following conditions, using the following sequence (Amasham Pharmacia Biotech) as the primer and Human Prostate […] cDNA library (CLONTECH) as the template DNA, with Pfu Turbo DNA polymerase ([…]):
PCR condition: [95° C., 5 min]×1 cycle, [(95° C., 1 min), (58° C., 2 min), (72° C., 3 min)]×25 cycles, [72° C., 10 min]×1 cycle
Thus obtained hsPDE9A1 fragment was given a restricted enzymatic treatment with NheI and NotI, and thereafter inserted into pcDNA 3.1 (+) expression vector (Invitrogen) to let it serve as a human PDE9 expression vector.
(§1) Human PDE9 expression vector-transformed Escherichia coli was mass incubated to produce a large amount of human PDE9 expression vector, which was transiently transfected into COS-1 cells, with LIPOFECTAMINE 2000 Reagent (GIBCO). The cells were homogenized in ice-cooled buffer A (40 mmol/L Tris-HCl, pH7.5, 15 mmol/L benzamidine, 15 mmol/L 2-mercaptoethanol, 1 μg/mL Pepstatin A, 1 μg/mL Leupeptin, 5 mmol/L EDTA) and centrifuged at 4° C., 14,000×g for 10 minutes. The supernatant was isolated to provide human recombinant PDE9 protein solution.
This mixed solution was incubated at 30° C. for 30 minutes and the enzymatic reaction of PDE9 was terminated by heating the system in boiling water for 90 seconds. Returning the system to room temperature, 50 μL of Snake venom (SIGMA: 1 mg/mL) was added, followed by 10 minutes' incubation at 30° C., to convert the [^3H]-5′-GMP produced in the previous reaction to [^3H]-guanosine. […] Thereafter [^3H]-guanosine was eluted with 3 mL of 3 mol/L aqueous ammonia and its radiation activity was measured with liquid scintillation counter.
PDE9 inhibition of the tested compound can be calculated by the following formula: […]
From the percent inhibition at various concentration levels of each tested compound, its IC50 value against PDE9 can be determined.

[3] = target: T2, human recombinant PDE5 protein (Homo sapiens, UniProt O76074); assay: Measurement of PDE5-inhibiting activity; format: biochemical
T2 construct: made in house; host or cells: COS-1 cells, transient transfection with pcDNA 3.1 (+); supernatant of the homogenate, not purified
Experimental: PCR condition: [94° C., 2 min]×1 cycle, [(94° C., 30 sec), (65° C., 30 sec), (68° C., 3 min)]×25 cycles, [68° C., 6 min]×1 cycle
Thus obtained hsPDE5A1 fragment was given a restricted enzymatic treatment with XBaI and EcoRI, and thereafter inserted into pcDNA 3.1 (+) expression vector (Invitrogen) to let it serve as a human PDE5 expression vector.
as §1, with “PDE5” for “PDE9”, “A” for “A (40 mmol/L Tris-HCl, pH7.5, 15 mmol/L benzamidine, 15 mmol/L 2-mercaptoethanol, 1 μg/mL Pepstatin A, 1 μg/mL Leupeptin, 5 mmol/L EDTA)”

[4] = Tables A and C, read-out: Inhibiting Activity (IC50 value) PDE9
[5] = Tables A and C, read-out: Inhibiting Activity (IC50 value) PDE5
[6] = Table B, read-out: Inhibiting Activity IC50 PDE9
[7] = Table B, read-out: Inhibiting Activity IC50 PDE5

T1 sequence (O76083 whole entry): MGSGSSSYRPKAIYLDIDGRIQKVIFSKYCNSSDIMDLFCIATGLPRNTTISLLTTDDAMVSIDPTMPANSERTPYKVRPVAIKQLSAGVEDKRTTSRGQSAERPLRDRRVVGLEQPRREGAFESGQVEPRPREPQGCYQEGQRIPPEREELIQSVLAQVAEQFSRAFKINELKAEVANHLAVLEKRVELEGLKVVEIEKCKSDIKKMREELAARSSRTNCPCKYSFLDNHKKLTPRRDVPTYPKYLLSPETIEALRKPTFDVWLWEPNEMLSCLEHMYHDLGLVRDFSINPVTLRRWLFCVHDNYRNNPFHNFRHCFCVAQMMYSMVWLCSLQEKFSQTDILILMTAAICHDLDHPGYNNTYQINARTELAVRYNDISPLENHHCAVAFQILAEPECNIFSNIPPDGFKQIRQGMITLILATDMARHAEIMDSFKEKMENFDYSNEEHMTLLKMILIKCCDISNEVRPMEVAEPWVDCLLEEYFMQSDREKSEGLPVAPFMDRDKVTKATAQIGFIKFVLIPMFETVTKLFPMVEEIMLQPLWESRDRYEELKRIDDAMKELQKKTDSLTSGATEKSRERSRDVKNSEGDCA

| Compound | IC50 [2, 4] [nM] | IC50 [3, 5] [nM] | also measured |
| --- | --- | --- | --- |
| Cc1c(C(=O)O)sc2nc(Cc3cccs3)[nH]c(=O)c12 [A-2, 5-Methyl-4-oxo-2-(thiophen-2-ylmethyl)-3,4-dihydrothieno-[2,3-d]pyrimidine-6-carboxylic acid] | 40 | 21100 | Frequency of occurrence of uninhibited contraction after administration ([1]; 1 mg/kg): 0.47 times/min; Frequency of occurrence of uninhibited contraction volume change ([1]; 1 mg/kg): −0.44 times/min; Residual urine volume after administration ([1]; 1 mg/kg): 1.23 mL; Residual urine volume volume change ([1]; 1 mg/kg): -0.04 mL; Frequency of occurrence of uninhibited contraction after administration ([1]; 10 mg/kg): 0.78 times/min; Frequency of occurrence of uninhibited contraction volume change ([1]; 10 mg/kg): −0.13 times/min; Residual urine volume after administration ([1]; 10 mg/kg): 1.02 mL; Residual urine volume volume change ([1]; 10 mg/kg): -0.25 mL |
| Cc1c(C(=O)O)sc2nc(Cc3ccccc3)[nH]c(=S)c12 [A-24, 2-Benzyl-5-methyl-4-thioxo-3,4-dihydrothieno[2,3-d]-pyrimidine-6-carboxylic acid] | 13 | 642 |  |
| Cc1c(C(=O)O)sc2nc(Cc3cccc(Br)c3)[nH]c(=S)c12 [A-25, 2-(3-Bromobenzyl)-5-methyl-4-thioxo-3,4-dihydrothieno-[2,3-d]pyrimidine-6-carboxylic acid] | 11 | 712 |  |
| Cc1c(C(=O)O)sc2nc(Cc3cccc(C(F)(F)F)c3)[nH]c(=S)c12 [A-27, 5-Methyl-4-thioxo-2-(3-trifluoromethylbenzyl)-3,4-dihydrothieno[2,3-d]pyrimidine-6-carboxylic acid] | 6 | 3510 |  |
| Cc1c(C(=O)O)sc2nc(Cc3ccc(Cl)c(Cl)c3)[nH]c(=S)c12 [A-28, 2-(3,4-Dichlorobenzyl)-5-methyl-4-thioxo-3,4-dihydrothieno-[2,3-d]pyrimidine-6-carboxylic acid] | 4 | 73 |  |
| Cc1c(C(=O)O)sc2nc(Cc3ccc(F)c(Cl)c3)[nH]c(=S)c12 [A-29, 2-(3-Chloro-4-fluorobenzyl)-5-methyl-4-thioxo-3,4-dihydrothieno[2,3-d]pyrimidine-6-carboxylic acid] | 7 | 495 |  |
| Cc1c(C(=O)O)sc2nc(CC3=CCCCC3)[nH]c(=S)c12 [A-30, 2-(Cyclohex-1-enylmethyl)-5-methyl-4-thioxo-3,4-dihydrothieno[2,3-d]pyrimidine-6-carboxylic acid] | 48 | 70 |  |
| O=C(O)c1cc2c(=S)[nH]c(Cc3ccccc3)nc2s1 [A-32, 2-Benzyl-4-thioxo-3,4-dihydrothieno[2,3-d]pyrimidine-6-carboxylic acid] | 11 | 8870 |  |
| O=C(O)c1cc2c(=S)[nH]c(Cc3ccc(Cl)c(Cl)c3)nc2s1 [A-33, 2-(3,4-Dichlorobenzyl)-4-thioxo-3,4-dihydrothieno[2,3-d]-pyrimidine-6-carboxylic acid] | 5 | 721 |  |
| Cc1c(C(=O)O)sc2nc(Cc3ccccc3)[nH]c(=O)c12 [A-34] | 35 | 10000 |  |
| O=C(O)c1ccc2c(=O)[nH]c(Cc3cccc(Cl)c3)nc2c1 [B-1, 2-(3-Chlorobenzyl)-4-oxo-3,4-dihydroquinazoline-7-carboxylic acid] |  |  | IC50 [2, 6]: 18 nM; IC50 [3, 7]: 6210 nM |
| O=C(O)c1ccc2c(=O)[nH]c(Cc3ccc(Cl)c(Cl)c3)nc2c1 [B-2, 2-(3,4-Dichlorobenzyl)-4-oxo-3,4-dihydroquinazoline-7-carboxylic acid] |  |  | IC50 [2, 6]: 35 nM; IC50 [3, 7]: 1440 nM |
| CC(C)c1ncc2c(=O)[nH]c3cc(Cl)ccc3n12 [C-1, 7-Chloro-1-isopropylimidazo[1,5-a]quinoxalin-4 (5H)-one] | 10 | 1260 |  |
| CC(C)c1ncc2c(=O)[nH]c3cc(C(=O)N(C)C)ccc3n12 [C-2, 1-Isopropyl-N,N-dimethyl-4-oxo-4,5-dihydroimidazo[1,5-a]-quinoxaline-7-carboxamide] | 42 | > 10000 |  |
| COc1cc2c(cc1C(=O)N(C)C)[nH]c(=O)c1cnc(C3CCCCC3)n12 [C-3, 1-Cyclohexyl-8-methoxy-N,N-dimethyl-4-oxo-4,5-dihydro-imidazo[1,5-a]quinoxaline-7-carboxamide] | 1.2 | > 10000 |  |
| CCOc1cc2c(cc1C(=O)N(C)C)[nH]c(=O)c1cnc(C3CCCCC3)n12 [C-4] | 3.4 | > 10000 |  |
| CN(C)C(=O)c1cc2[nH]c(=O)c3cnc(C4CCCCC4)n3c2cc1Cl [C-5, 8-Chloro-1-cyclohexyl-N,N-dimethyl-4-oxo-4,5-dihydroimidazo-[1,5-a]quinoxaline-7-carboxamide] | 3 | > 10000 |  |
| O=C(c1cc2[nH]c(=O)c3cnc(C4CCCCC4)n3c2cc1Cl)N1CCN(CCO)CC1 [C-6, 1-[(8-Chloro-1-cyclohexyl-4-oxo-4,5-dihydroimidazo[1,5-a]-quinoxalin-7-yl)carbonyl]-4-(2-hydroxyethyl)piperazine] | 8 | 7540 |  |
| CCc1ccc2c(c1)[nH]c(=O)c1cnc(CCC(=O)O)n12 [C-7, 3-(7-Ethyl-4-oxo-4,5-dihydroimidazo[1,5-a]quinoxalin-1-yl)-propionic acid] | 2 | > 10000 |  |
| O=C(O)CCc1ncc2c(=O)[nH]c3cc(C(F)(F)F)ccc3n12 [C-8, 3-(4-Oxo-7-trifluoromethyl-4,5-dihydroimidazo[1,5-a]-quinoxalin-1-yl)propionic acid] | 2 | 6370 |  |
| O=C(O)CCc1ncc2c(=O)[nH]c3cc(Br)ccc3n12 [C-9, 3-(7-Bromo-4-oxo-4,5-dihydroimidazo[1,5-a]quinoxalin-1-yl)-propionic acid] | 3 | 2810 |  |
| O=C(O)/C=C/c1ccc2c(=O)[nH]c3cc(C(F)(F)F)ccc3n12 [C-10, (E)-3-(4-oxo-7-trifluoromethyl-4,5-dihydropyrrolo[1,2-a]-quinoxalin-1-yl)acrylic acid] | 8 | 4560 |  |
